Experimental data reported in BindingDB's records for doi:10.1124/jpet.105.099705 (Meiji Seika Kaisha, 2006).
pIC50: −log10 of the molar value. Structures can show the parent of a compound that is named as a salt.

Assays:
[1] = molecular target: T1, Neuropeptide Y receptor type 5 (Homo sapiens, UniProt Q15761)
T1 sequence (Q15761 whole entry): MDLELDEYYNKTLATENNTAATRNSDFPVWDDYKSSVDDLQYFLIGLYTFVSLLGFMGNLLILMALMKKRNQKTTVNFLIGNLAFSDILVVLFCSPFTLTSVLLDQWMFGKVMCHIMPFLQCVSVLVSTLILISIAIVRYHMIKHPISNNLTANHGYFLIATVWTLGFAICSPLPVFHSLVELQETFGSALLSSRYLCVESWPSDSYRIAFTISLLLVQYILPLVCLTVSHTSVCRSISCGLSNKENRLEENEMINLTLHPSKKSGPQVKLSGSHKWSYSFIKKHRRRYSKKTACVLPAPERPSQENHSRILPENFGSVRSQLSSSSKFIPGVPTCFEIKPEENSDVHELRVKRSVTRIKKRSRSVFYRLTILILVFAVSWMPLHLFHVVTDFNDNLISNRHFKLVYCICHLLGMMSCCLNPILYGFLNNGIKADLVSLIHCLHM

[2] = molecular target: T2, Neuropeptide Y receptor type 2 (Homo sapiens, UniProt P49146)
T2 sequence (P49146 whole entry): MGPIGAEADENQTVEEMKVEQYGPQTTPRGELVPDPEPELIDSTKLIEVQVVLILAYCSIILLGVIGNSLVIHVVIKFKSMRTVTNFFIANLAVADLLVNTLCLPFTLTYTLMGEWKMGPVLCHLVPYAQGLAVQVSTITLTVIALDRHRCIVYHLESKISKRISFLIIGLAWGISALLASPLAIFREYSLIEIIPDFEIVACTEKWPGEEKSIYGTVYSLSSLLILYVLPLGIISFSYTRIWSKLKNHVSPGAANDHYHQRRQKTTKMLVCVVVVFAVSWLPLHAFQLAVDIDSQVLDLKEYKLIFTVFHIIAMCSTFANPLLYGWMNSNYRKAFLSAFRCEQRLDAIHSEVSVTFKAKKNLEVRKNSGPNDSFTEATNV

[3] = molecular target: T3, Neuropeptide Y receptor type 1 (Homo sapiens, UniProt P25929)
T3 sequence (P25929 whole entry): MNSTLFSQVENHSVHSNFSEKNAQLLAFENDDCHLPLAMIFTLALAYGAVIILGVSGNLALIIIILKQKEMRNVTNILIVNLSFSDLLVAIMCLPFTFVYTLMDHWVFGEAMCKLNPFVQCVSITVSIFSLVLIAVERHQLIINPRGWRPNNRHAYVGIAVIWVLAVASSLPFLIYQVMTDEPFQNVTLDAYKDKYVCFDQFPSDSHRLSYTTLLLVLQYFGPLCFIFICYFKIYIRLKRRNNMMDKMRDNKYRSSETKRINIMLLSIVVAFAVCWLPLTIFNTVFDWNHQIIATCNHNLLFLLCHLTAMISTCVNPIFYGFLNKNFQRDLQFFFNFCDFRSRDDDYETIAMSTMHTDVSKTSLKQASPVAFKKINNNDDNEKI

| SMILES | pIC50 [1] | pIC50 [2] | pIC50 [3] |
| --- | --- | --- | --- |
| CC(C)n1c2c(c3cc(NC(=O)N(C)CCc4ccncc4)ccc31)CCCC2 [3-(5,6,7,8-tetrahydro-9-isopropyl-carbazol-3-yl)-1-methyl-1-(2-pyridin-4-yl-ethyl)-ureanbsphydrochloride] | 8.37 | < 5.00 | – |
| CC1(C)CC(=O)C(C2C3=C(CC(C)(C)CC3=O)Oc3ccccc32)C(=O)C1 (stereo not given) [CAS_6508-43-6] | 7.60 | < 5.00 | < 5.00 |
